Results published in US20260151375A1, “CDK2 INHIBITORS AND METHODS OF USING THE SAME” (Cedilla Therapeutics, Inc., priority 2022, published 2026).

Columns and labels:
[1] = test system: Kuramochi cells; experiment: IncuCyte Kuramochi Assay (cell proliferation); format: cell-based; conditions: 72 h, Kuramochi cells labeled with mApple-H2B, cell count, read-out: IncuCyte - Kuramochi RB-WT: IC50
Procedure, shortened: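 GI50 came from dose-response fits of cell-count fold change between 0 and 72 h, normalized to DMSO controls. Counts were fluorescent nuclei from live-cell images over a 10-point, ½ log series starting at 20 μM.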

[2] = molecular target: T1, CDK2/Cyclin E1 (Homo sapiens, UniProt P24941); experiment: Caliper Assay (LabChip EZ Reader mobility shift assay), inhibition of CDK2/Cyclin E1 activity; format: biochemical; conditions: 2.5 nM CDK2/Cyclin E1(14-475), 100 μM ATP, 30 min preincubation; read-out: Caliper Assay (CDK2/CCNE1): IC50
T1 construct: purchased 14-475
Procedure, shortened: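 Compounds were preincubated 30 min with CDK2/Cyclin E1(14-475), then run for 100 min with 2.5 nM enzyme, 100 μM ATP and 1.5 μM 5-FAM-QSPKKG peptide in HEPES pH 7.5 (final). Reactions were EDTA-stopped and substrate-to-product conversion read by mobility shift. IC50 came from a four-parameter fit.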

SMILES | IC50 [1] | IC50 [2]
Cc1nc(C)c(C(=O)N2CC(c3nnc(C(F)(F)c4ccc(Cl)c(Cl)c4)o3)C3(C2)CN(C(=O)[C@H]2CC2(F)F)C3)s1 (stereo partly drawn) [I-103, (8-(5-((3,4-dichlorophenyl)difluoromethyl)-1,3,4-oxadiazol-2-yl)-2-((R)-2,2-difluorocyclopropane-1-carbonyl)-2,6-diazaspiro[3.4]octan-6-yl)(2,4-dimethylthiazol-5-yl)methanone] | > 10 µM | > 10 µM
Cc1nc(C)c(C(=O)N2CC(c3nnc(C(C)c4cccc(C5(C(F)(F)F)CC5)n4)o3)C3(C2)CN(C(=O)[C@H]2CC2(C)C)C3)s1 (some centres unmarked) [I-104] | > 10 µM | 0.1 to 1 µM
CC1(C)C[C@@H]1C(=O)N1CC2(C1)CN(c1ncnc3ncsc13)CC2c1nnc(Cc2cccc(C3CCOCC3)n2)o1 (stereo partly drawn) [I-105, ((S)-2,2-dimethylcyclopropyl)(8-(5-((6-(tetrahydro-2H-pyran-4-yl)pyridin-2-yl)methyl)-1,3,4-oxadiazol-2-yl)-6-(thiazolo[4,5-d]pyrimidin-7-yl)-2,6-diazaspiro[3.4]octan-2-yl)methanone] | > 10 µM | > 10 µM
O=C(c1cncs1)N1CC(c2nc3ccc(Oc4ccccc4)cc3o2)C2(C1)CN(C(=O)[C@H]1CC1(F)F)C2 (stereo partly drawn) [I-144, (2-((R)-2,2-difluorocyclopropane-1-carbonyl)-8-(6-phenoxybenzo[d]oxazol-2-yl)-2,6-diazaspiro[3.4]octan-6-yl)(thiazol-5-yl)methanone] | > 10 µM | 1 to 10 µM
O=C(c1cncs1)N1CC(c2nc3cc(Oc4ccccc4)ccc3o2)C2(C1)CN(C(=O)[C@H]1CC1(F)F)C2 (stereo partly drawn) [I-145, (2-((R)-2,2-difluorocyclopropane-1-carbonyl)-8-(5-phenoxybenzo[d]oxazol-2-yl)-2,6-diazaspiro[3.4]octan-6-yl)(thiazol-5-yl)methanone] | > 10 µM | > 10 µM
CC(C)(C#N)C(=O)N1CC2(CN(Cc3cnccn3)CC2c2nnc(C(F)(F)c3ccc(Cl)c(Cl)c3)o2)C1 (centres unmarked) [I-146] | > 10 µM | > 100 µM
O=C(C1CNC1)N1CC(c2nnc(C(F)(F)c3ccc(Cl)c(Cl)c3)o2)C2(C1)CN(C(=O)[C@H]1CC1(F)F)C2 (some centres unmarked) [I-147] | > 10 µM | > 100 µM
O=C([C@H]1CC1(F)F)N1CC2(C1)CN(C(=O)N1CCOCC1)CC2c1nnc(C(F)(F)c2ccc(Cl)c(Cl)c2)o1 (stereo partly drawn) [I-148, (8-(5-((3,4-dichlorophenyl)difluoromethyl)-1,3,4-oxadiazol-2-yl)-2-((R)-2,2-difluorocyclopropane-1-carbonyl)-2,6-diazaspiro[3.4]octan-6-yl)(morpholino)methanone] | > 10 µM | > 10 µM
O=C(c1nncs1)N1CC(c2nnc(C(F)(F)c3ccc(Cl)c(Cl)c3)o2)C2(C1)CN(C(=O)[C@H]1CC1(F)F)C2 (some centres unmarked) [I-149] | > 10 µM | > 10 µM
O=C(C1CCNCC1)N1CC(c2nnc(C(F)(F)c3ccc(Cl)c(Cl)c3)o2)C2(C1)CN(C(=O)[C@H]1CC1(F)F)C2 (stereo partly drawn) [I-150, (8-(5-((3,4-dichlorophenyl)difluoromethyl)-1,3,4-oxadiazol-2-yl)-2-((R)-2,2-difluorocyclopropane-1-carbonyl)-2,6-diazaspiro[3.4]octan-6-yl)(piperidin-4-yl)methanone] | > 10 µM | > 10 µM
O=C(c1noc2cc(Cl)ccc12)N1CC(c2nnc(C(F)(F)c3ccc(Cl)c(Cl)c3)o2)C2(C1)CN(C(=O)[C@H]1CC1(F)F)C2 (some centres unmarked) [I-152] | > 10 µM | > 10 µM
O=C(C1COC1)N1CC(c2nnc(C(F)(F)c3ccc(Cl)c(Cl)c3)o2)C2(C1)CN(C(=O)[C@H]1CC1(F)F)C2 (some centres unmarked) [I-153] | > 10 µM | > 10 µM
O=C(c1cncs1)N1CC(c2nnc(C(F)(F)c3ccc(Cl)c(Cl)c3)o2)C2(C1)CN(C1CCOC1)C2 (centres unmarked) [I-154, (8-(5-((3,4-dichlorophenyl)difluoromethyl)-1,3,4-oxadiazol-2-yl)-2-(tetrahydrofuran-3-yl)-2,6-diazaspiro[3.4]octan-6-yl)(thiazol-5-yl)methanone] | > 10 µM | > 10 µM
O=C(c1ccn[nH]1)N1CC(c2nnc(C(F)(F)c3ccc(Cl)c(Cl)c3)o2)C2(C1)CN(C(=O)[C@H]1CC1(F)F)C2 (some centres unmarked) [I-155] | > 10 µM | > 10 µM
O=C(c1noc2ccccc12)N1CC(c2nnc(C(F)(F)c3ccc(Cl)c(Cl)c3)o2)C2(C1)CN(C(=O)[C@H]1CC1(F)F)C2 (stereo partly drawn) [I-156, benzo[d]isoxazol-3-yl(8-(5-((3,4-dichlorophenyl)difluoromethyl)-1,3,4-oxadiazol-2-yl)-2-((R)-2,2-difluorocyclopropane-1-carbonyl)-2,6-diazaspiro[3.4]octan-6-yl)methanone] | > 10 µM | > 10 µM
O=C(c1cncs1)N1CC(c2nnc(C(F)(F)c3ccc(Cl)c(Cl)c3)o2)C2(C1)CN(C(=O)[C@H]1CCCO1)C2 (some centres unmarked) [I-157] | > 10 µM | 1 to 10 µM
O=C(C1CCOCC1)N1CC(c2nnc(C(F)(F)c3ccc(Cl)c(Cl)c3)o2)C2(C1)CN(C(=O)[C@H]1CC1(F)F)C2 (some centres unmarked) [I-158] | > 10 µM | > 10 µM

SMILES | IC50 [1] | IC50 [2]
CC(C)(C#N)C(=O)N1CC2(CN(Cc3cncs3)CC2c2nnc(C(F)(F)c3ccc(Cl)c(Cl)c3)o2)C1 (centres unmarked) [I-159, 3-(8-(5-((3,4-dichlorophenyl)difluoromethyl)-1,3,4-oxadiazol-2-yl)-6-(thiazol-5-ylmethyl)-2,6-diazaspiro[3.4]octan-2-yl)-2,2-dimethyl-3-oxopropanenitrile] | > 10 µM | > 10 µM
O=C(C#CCO)N1CC(c2nnc(C(F)(F)c3ccc(Cl)c(Cl)c3)o2)C2(C1)CN(C(=O)[C@H]1CC1(F)F)C2 (some centres unmarked) [I-160] | > 10 µM | > 10 µM
O=C(c1cc(C(F)(F)F)n[nH]1)N1CC(c2nnc(C(F)(F)c3ccc(Cl)c(Cl)c3)o2)C2(C1)CN(C(=O)[C@H]1CC1(F)F)C2 (some centres unmarked) [I-161] | 5 to 10 µM | > 10 µM
O=C(c1[nH]ncc1F)N1CC(c2nnc(C(F)(F)c3ccc(Cl)c(Cl)c3)o2)C2(C1)CN(C(=O)[C@H]1CC1(F)F)C2 (some centres unmarked) [I-162] | > 10 µM | > 10 µM
O=C(c1[nH]ncc1C(F)(F)F)N1CC(c2nnc(C(F)(F)c3ccc(Cl)c(Cl)c3)o2)C2(C1)CN(C(=O)[C@H]1CC1(F)F)C2 (some centres unmarked) [I-163] | > 10 µM | > 10 µM
O=C(c1cncs1)N1CC(c2nnc(C(F)(F)c3ccc(Cl)c(Cl)c3)o2)C2(C1)CN(C(=O)[C@@H]1CCCO1)C2 (some centres unmarked) [I-164] | > 10 µM | > 10 µM
O=C(c1cnc2ccccc2n1)N1CC(c2nnc(C(F)(F)c3ccc(Cl)c(Cl)c3)o2)C2(C1)CN(C(=O)[C@H]1CC1(F)F)C2 (some centres unmarked) [I-165] | > 10 µM | 1 to 10 µM
O=C(c1nccnc1O)N1CC(c2nnc(C(F)(F)c3ccc(Cl)c(Cl)c3)o2)C2(C1)CN(C(=O)[C@H]1CC1(F)F)C2 (some centres unmarked) [I-166] | > 10 µM | > 10 µM
O=C(c1cn[nH]c1C(F)(F)F)N1CC(c2nnc(C(F)(F)c3ccc(Cl)c(Cl)c3)o2)C2(C1)CN(C(=O)[C@H]1CC1(F)F)C2 (stereo partly drawn) [I-167, (8-(5-((3,4-dichlorophenyl)difluoromethyl)-1,3,4-oxadiazol-2-yl)-2-((R)-2,2-difluorocyclopropane-1-carbonyl)-2,6-diazaspiro[3.4]octan-6-yl)(5-(trifluoromethyl)-1H-pyrazol-4-yl)methanone] | > 10 µM | > 10 µM
O=C(c1cncs1)N1CC(c2nnc(C(F)(F)c3ccc(Cl)c(Cl)c3)o2)C2(C1)CN(C(=O)[C@H]1CCCN1)C2 (stereo partly drawn) [I-169 1st, 2-(2-(D-prolyl)-6-(thiazole-5-carbonyl)-2,6-diazaspiro[3.4]octan-8-yl)-5-((3,4-dichlorophenyl)difluoromethyl)-1,3,4-oxadiazole] | 5 to 10 µM | > 10 µM
O=C(c1cncs1)N1CC(c2nnc(C(F)(F)c3ccc(Cl)c(Cl)c3)o2)C2(C1)CN(C(=O)[C@@H]1CCCN1)C2 (some centres unmarked) [I-169 2nd] | > 10 µM | > 10 µM
CC(C)(C(=O)N1CC2(C1)CN(c1ncnc3ncsc13)CC2c1nnc(C(F)(F)c2ccc(Cl)c(Cl)c2)o1)C(F)F (centres unmarked) [I-170, 1-(8-(5-((3,4-dichlorophenyl)difluoromethyl)-1,3,4-oxadiazol-2-yl)-6-(thiazolo[4,5-d]pyrimidin-7-yl)-2,6-diazaspiro[3.4]octan-2-yl)-3,3-difluoro-2,2-dimethylpropan-1-one] | > 10 µM | > 10 µM
O=C([C@H]1CC1(F)F)N1CC(c2nnc(C(F)(F)c3ccc(Cl)c(Cl)c3)o2)C2(C1)CN(C(=O)[C@H]1CC1(F)F)C2 (some centres unmarked) [I-171] | > 10 µM | > 10 µM
O=C(c1cncs1)N1CC(c2nnc(C(F)(F)c3ccc(Cl)c(Cl)c3)o2)C2(C1)CN(C(=O)C1CNC1)C2 (centres unmarked) [I-173] | > 10 µM | > 10 µM
CC1(C(=O)N2CC3(C2)CN(c2ncnc4ncsc24)CC3c2nnc(C(F)(F)c3ccc(Cl)c(Cl)c3)o2)CC1(F)F (centres unmarked) [I-174, (8-(5-((3,4-dichlorophenyl)difluoromethyl)-1,3,4-oxadiazol-2-yl)-6-(thiazolo[4,5-d]pyrimidin-7-yl)-2,6-diazaspiro[3.4]octan-2-yl)(2,2-difluoro-1-methylcyclopropyl)methanone] | > 10 µM | 1 to 10 µM
CC(C)(C#N)C(=O)N1CC2(CN(C(=O)c3cnccn3)CC2c2nnc(C(F)(F)c3ccc(Cl)c(Cl)c3)o2)C1 (centres unmarked) [I-175] | > 10 µM | > 10 µM
O=C(c1cnccn1)N1CC(c2nnc(C(F)(F)c3ccc(Cl)c(Cl)c3)o2)C2(C1)CN(C(=O)[C@H]1CC1(F)F)C2 (stereo partly drawn) [I-176, (8-(5-((3,4-dichlorophenyl)difluoromethyl)-1,3,4-oxadiazol-2-yl)-2-((R)-2,2-difluorocyclopropane-1-carbonyl)-2,6-diazaspiro[3.4]octan-6-yl)(pyrazin-2-yl)methanone] | > 10 µM | 1 to 10 µM
